SMILES strings stand for the structures.

Assay [1] is described as follows: Inhibition of Escherichia coli topoisomerase 4 assessed as relaxation of supercoiled plasmid pBR322 DNA and measured after 30 mins.
The test system of the next assay is Escherichia coli. The assay can be described thus: Antibacterial activity against Escherichia coli measured by broth microdilution assay. In general terms: In broth dilution the organism is exposed to a series of concentrations in liquid medium.
A further assay concerns the target DNA gyrase (Escherichia coli, UniProt P0AES4+P0AES6). As to the kind of experiment: Inhibition of Escherichia coli DNA gyrase supercoiling activity using pBR322 as substrate incubated for 30 mins measured by gel-based assay. The class given is protein-complex assay.
The test system of a further assay is Staphylococcus aureus. The assay can be described thus: Antibacterial activity against Staphylococcus aureus measured by broth microdilution assay.

A word on the IC50: it is the midpoint of a concentration-inhibition curve. In the case of `COc1ccccc1-c1cccc(C(=O)NC(CN)c2cccc(O)c2)c1` (configuration not stated), in assay [1], the IC50 was over 100 µM.

Broadly, the MIC is the smallest concentration in the dilution series that meets the test's criterion for growth inhibition. In the case of `Cl.NCC(NC(=O)c1cccc(-c2cccs2)c1)c1ccc(O)cc1` (configuration not stated), the 50% inhibitory concentration (IC50) was over 540 µM in assay [1] and 0.3 µM on DNA gyrase. Also, the MIC in the assay with Escherichia coli and in the assay with Staphylococcus aureus was 8 µg/mL in each case.

Consider `CCOc1cccc(-c2cccc(C(=O)N[C@@H](CN)c3ccccc3)c2)c1F`, for which the IC50 in assay [1] is over 100 µM.

With `NC[C@H](NC(=O)c1cccc(-c2ccccc2C(F)(F)F)c1)c1ccccc1`, in assay [1], the IC50 is over 100 µM.

For the origin of these results see ChEMBL document CHEMBL5104153, “De novo design of type II topoisomerase inhibitors as potential antimicrobial agents targeting a novel binding region” (RSC Med Chem, 2022).
